Test results as given in patent US20250051283A1, “THERAPEUTIC COMPOUNDS AND METHODS” (priority 2023, published 2025).
Where two headings read alike, the source gives them in different places.

How the values were obtained:
EV-D68 US/MO/14-18947 = assay: CPE assay (neutral red) with EV-D68 US/MO/14-18947 in R.D. cells; assay type: cell-based, Enterovirus D68
Procedure: Cell lines and viruses. Human rhabdomyosarcoma (R.D., ATCC, CCL-136) cells were maintained at 37° C. in a 5% CO2 atmosphere and cultured in Dulbecco's modified Eagle's medium (DMEM) supplemented with 10% fetal bovine serum (FBS) and 1% penicillin-streptomycin antibiotics. The following reagents were obtained through BEI Resources, NIAID, NIH: Human Enterovirus D68, US/MO/14-18949, NR-49130; Enterovirus D68, US/MO/14-18947, NR-49129; Enterovirus D68, US/IL/14-18952, NR-49131; Enterovirus D68, US/KY/14-18953, NR-49132; Enterovirus D68, US/IL/14-18956, NR-49133.
Antiviral assays. Cells for antiviral assays were seeded and grown overnight at 37° C. in a 5% CO2 atmosphere for ˜90% confluency the next day. For all infections, cells were washed with PBS containing magnesium and calcium and infected with virus diluted in DMEM with 2% FBS and 30 mM MgCl2. Viruses were incubated for at least 1 h at 33° C. in a 5% CO2 atmosphere, followed by the addition of compound as well as 1% penicillin-streptomycin. For CC50 measurements, the experiment was performed similarly but excluded viral infection. For cytopathic effect (CPE) assays, cells were stained with 66 µg/mL neutral red for 2 h and neutral red uptake was measured at absorbance 540 nm using a Multiskan FC Microplate Photometer (ThermoFisher Scientific). The EC50 and CC50 values were calculated from best-fit dose response curves using GraphPad Prism. For plaque reduction assays, an 1.2% avicel microcrystalline cellulose (FMC BioPolymer, Philadelphia, PA) overlay was used and cells were stained after 3 days as previously described^26.

[1] = biological target: T1, EV-D68 2A^pro (WT-2A^pro, strain US/KY/14-18953, expressed in E. coli BL21(DE3) from pE-SUMOstar vector) (enterovirus D68, UniProt A0A097BW19); assay: FRET-based enzymatic assay of EV-D68 2A^pro inhibition (FRET substrate Dabcyl-KIRIVNT/GPGFGGE-Edans); assay type: biochemical
T1 construct: E. coli-codon-optimised gene, pE-SUMOstar, His-SUMO tag (removed with SUMO protease for nontagged form), E. coli BL21(DE3), Ni-NTA; 7JRE is the C107A mutant
Procedure: (§1) FIG. 4. […] Key structural variations compared to telaprevir were highlighted in red. Enzymatic inhibitory activity IC50 value was determined in the FRET-based assay. Antiviral EC50 value was determined in the CPE assay with EV-D68 US/MO/14-18947 in R.D. cells. Cytotoxicity CC50 value was determined using the neutral red uptake method in R.D. cells. The results are the mean±standard deviation of two independent experiments with three repeats in each experiment.
as §1, with “5.” for “4.”, “Jun8861” for “telaprevir”
(§2) Protein expression and purification. EV-D68 2A^pro gene from strain US/KY/14-18953 was ordered from Genscript (Piscataway, NJ) in pET28b(+) vector with E. coli codon optimization. 2A^pro gene was subcloned into pE-SUMOstar vector according to the manufacturers protocol. Plasmid encoding WT-2A^pro was transformed into BL21(DE3) competent E. coli cells, and a single colony was picked and used to inoculate 10 mL of L.B. grown supplemented with 50 μg/mL kanamycin at 37° C. at 250 rpm. The 10 mL inoculant was added to 1 L of L.B. with 50 μg/mL kanamycin and grown to an OD600 of 0.8-1.0, cooled to 18° C., then induced using 0.5 mM IPTG. Induced cultures were incubated at 18° C. for an additional 24 h, then harvested and resuspended in lysis buffer (25 mM Tris (pH 7.5); 750 mM NaCl, 2 mM DTT with 0.5 mg/mL lysozyme, 0.5 mM PMSF and 0.02 mg/mL DNase I) and lysed with alternating sonication and French press cycles. The cell debris were removed by centrifugation at 12,000×g for 45 min […]. The supernatant was incubated with Ni-NTA resin for over 2 h at 4° C. on a rotator. The Ni-NTA resin was thoroughly washed with 50 mM imidazole in wash buffer (50 mM Tris (pH 7.5), 150 mM NaCl, and 2 mM DTT); for the SUMO-tagged protein, the protein was directly eluted with 300 mM imidazole; for the nontagged 2A^pro Ni-NTA resin was treated with SUMO Protease 1 to remove the SUMO tag, then 2A^pro was washed off from the column with 10 mM imidazole in wash buffer. The imidazole was removed via dialysis or 10 K molecular weight cut-off centrifugal concentrator spin column. The purity of the protein was confirmed with SDS-PAGE. The protein concentration was determined by classic BCA assay using bovine serum albumin as a standard. EV-D68 3C^pro in pET28b(+) vector was expressed as previously described^10.
(§3) Peptide synthesis. The FRET substrate of EV-D68 2A^pro, Dabcyl-KIRIVNT/GPGFGGE-Edans, was synthesized using the Fmoc solid phase synthesis strategy.
(§4) Enzymatic assays. The reaction buffer contains 50 mM Tris (pH7.0), 150 mM NaCl, 10% Glycerol, and 2 mM DTT, and the reaction was carried out at 30° C. in Cytation 5 imaging reader (Fisher Scientific) with EX360/40-EM460/40 filter. Reactions were monitored every 90 sec. […] The reaction was initiated by adding 20 μM of FRET substrate, and the reaction was monitored for 2 hours and initial velocity was calculated for the first 30 minutes via linear regression.

EV-D68 2A^pro = EV-D68 2A^pro (Enterovirus D68, UniProt A0A097BW19); assay: FRET-based enzymatic assay of EV-D68 2Apro inhibition; assay type: biochemical; conditions: for IC50: read-out: Enzymatic inhibitory activity IC50
Procedure: as §2, §3, §4

[2] = CPE assay, EV-D68 US/MO/14-18947 in R.D. cells
[3] = Enterovirus D, EVD68, RD, read-out: Antiviral EC50, CPE assay, EV-D68 US/MO/14-18947 in R.D. cells

Compound	antiviral activity, in words, relative to the named comparator (EV-D68 US/MO/14-18947; [2])	IC50 [1] [nM]	enzymatic inhibition, in words, relative to the named comparator (EV-D68 2A^pro)	EC50 (EV-D68 US/MO/14-18947; [3]) [nM]	IC50 (EV-D68 2A^pro) [nM]	EC50 (EV-D68 US/MO/14-18947; CPE assay, EV-D68 US/MO/14-18947 in R.D. cells, read-out: Antiviral EC50) [nM]
CCC[C@H](NC(=O)[C@@H]1[C@H]2CCC[C@H]2CN1C(=O)[C@@H](NC(=O)C=Cc1ccccc1)C(C)(C)C)C(=O)C(=O)NC1CC1 [Jun8813, (1S,3aR,6aS)-2-((S)-2-cinnamamido-3,3-dimethylbutanoyl)-N—((S)-1-(cyclopropylamino)-1,2-dioxohexan-3-yl)octahydrocyclopenta[c]pyrrole-1-carboxamide]	reduced enzymatic inhibition and antiviral activity compared to telaprevir	760 ± 320	reduced enzymatic inhibition and antiviral activity compared to telaprevir			
CCC[C@H](NC(=O)[C@@H]1[C@H]2CCC[C@H]2CN1C(=O)[C@@H](NC(=O)CC1CCC(F)(F)CC1)C(C)(C)C)C(=O)C(=O)NC1CC1 [Jun975, (1S,3aR,6aS)—N—((S)-1-(cyclopropylamino)-1,2-dioxohexan-3-yl)-2-((S)-2-(2-(4,4-difluorocyclohexyl)acetamido)-3,3-dimethylbutanoyl)octahydrocyclopenta[c]pyrrole-1-carboxamide]		140 ± 10		160 to 750	80 to 140	
CC(C)(C)[C@H](NC(=O)CC12CC3CC(CC(C3)C1)C2)C(=O)N1C[C@@H]2CCC[C@@H]2[C@H]1C(=O)N[C@H](C(=O)C(=O)NC1CC1)C1CCCC1 [Jun11808, (1S,3aR,6aS)-2-((S)-2-(2-((3S,5S,7S)-adamantan-1-yl)acetamido)-3,3-dimethylbutanoyl)-N—((S)-1-cyclopentyl-3-(cyclopropylamino)-2,3-dioxopropyl)octahydrocyclopenta[c]pyrrole-1-carboxamide]	comparable enzymatic inhibition and antiviral activity as Jun8861	200 ± 70	comparable enzymatic inhibition and antiviral activity as Jun8861			
CC(C)(C)C(NC(=O)CC12CC3CC(CC(C3)C1)C2)C(=O)N1CC2CCCC2C1C(=O)NC(Cc1ccc(F)cc1)C(=O)C(=O)NC1CC1 [Jun11763, (1S,3aR,6aS)-2-((S)-2-(2-((3S,5S,7S)-adamantan-1-yl)acetamido)-3,3-dimethylbutanoyl)-N—((S)-4-(cyclopropylamino)-1-(4-fluorophenyl)-3,4-dioxobutan-2-yl)octahydrocyclo-penta[c]pyrrole-1-carboxamide]				190	150	
CC(C)(C)[C@H](NC(=O)CC12CC3CC(CC(C3)C1)C2)C(=O)N1C[C@@H]2CCC[C@@H]2[C@H]1C(=O)N[C@@H](Cc1c[nH]c2ccccc12)C(=O)C(=O)NC1CC1 [Jun11862, (1S,3aR,6aS)-2-((S)-2-(2-((3S,5S,7S)-adamantan-1-yl)acetamido)-3,3-dimethylbutanoyl)-N—((S)-4-(cyclopropylamino)-1-(1H-indol-3-yl)-3,4-dioxobutan-2-yl)octahydrocyclopenta[c]pyrrole-1-carboxamide]	comparable enzymatic inhibition and antiviral activity as Jun11385		comparable enzymatic inhibition and antiviral activity as Jun11385			
CCC[C@H](NC(=O)[C@@H]1[C@H]2CCC[C@H]2CN1C(=O)[C@@H](NC(=O)NC(C)(C)C)C(C)(C)C)C(=O)C(=O)NC1CC1 [Jun9475, (1S,3aR,6aS)-2-((S)-2-(3-(tert-butyl)ureido)-3,3-dimethylbutanoyl)-N—((S)-1-(cyclopropylamino)-1,2-dioxohexan-3-yl)octahydrocyclopenta[c]pyrrole-1-carboxamide]					1160	
CCC[C@H](NC(=O)[C@@H]1[C@H]2CCC[C@H]2CN1C(=O)[C@@H](NC(=O)NC12CC3CC(CC(C3)C1)C2)C(C)(C)C)C(=O)C(=O)NC1CC1 [Jun1023, (1S)-2-((S)-2-(3-((3R,5R,7R)-adamantan-1-yl)ureido)-3,3-dimethylbutanoyl)-N—((S)-1-(cyclopropylamino)-1,2-dioxohexan-3-yl)octahydrocyclopenta[c]pyrrole-1-carboxamide]			reduced enzymatic inhibition			700
CCC[C@H](NC(=O)[C@@H]1[C@H]2CCC[C@H]2CN1C(=O)[C@@H](NC(C)=O)C(C)(C)C)C(=O)C(=O)NC1CC1 [Jun8862, (1S,3aR,6aS)-2-((S)-2-acetamido-3,3-dimethylbutanoyl)-N—((S)-1-(cyclopropylamino)-1,2-dioxohexan-3-yl)octahydrocyclopenta[c]pyrrole-1-carboxamide]					940	
CC(C)[C@H](NC(=O)[C@@H]1[C@H]2CCC[C@H]2CN1C(=O)[C@@H](NC(=O)CC12CC3CC(CC(C3)C1)C2)C(C)(C)C)C(=O)C(=O)NC1CC1 [Jun11718, (1S,3aR,6aS)-2-((S)-2-(2-((3S,5S,7S)-adamantan-1-yl)acetamido)-3,3-dimethylbutanoyl)-N—((S)-1-(cyclopropylamino)-4-methyl-1,2-dioxopentan-3-yl)octahydrocyclopenta[c]pyrrole-1-carboxamide]	comparable enzymatic inhibition and antiviral activity as Jun8861		comparable enzymatic inhibition and antiviral activity as Jun8861			
(1S)-2-((S)-2-(2-((3S,5S,7S)-adamantan-1-yl)acetamido)-3,3-dimethylbutanoyl)-N-((2S)-4-(cyclopropylamino)-3-hydroxy-4-oxo-1-(thiophen-3-yl)butan-2 yl)octahydrocyclopenta[c]pyrrole-1-carboxamide [Jun11818]	comparable enzymatic inhibition and antiviral activity as Jun11385		comparable enzymatic inhibition and antiviral activity as Jun11385			
